The structures appear in SMILES notation.

For one test, the target named is BCL6 BTB/POZ domain (Homo sapiens, UniProt P41182, C67R/C84N/C8Q). The test can be described thus: Conventional differential scanning fluorimetry (DSF). The format is binding. As to conditions: for Tm: 10 μM protein, covalent complex (500 μM SF, 6 or 24 h) or 200 μM GSK137, mean ± SD, three replicates; for ΔTm: relative to unmodified BCL6. On the set-up: hBCL6-Flag 3Cmut (5-129) produced in house; FLAG (C); made in house. On the procedure:
We subsequently analyzed protein-fragment interactions using differential scanning fluorimetry (DSF) to explore the impact of these binding events on protein stability.[45] […] […]; this illustrates the impact of covalent modification on protein–ligand binding. […]
8.2. Conventional differential scanning fluorimetry (DSF)
BCL6-SF covalent complex preparation:
SFs 2f–i, 2p, 2q, 2s, and 2t in DMSO-d 6 (200 mM stock) or pure DMSO-d 6 were added to crystallizable BCL6 BTB/POZ domain (10 µM) in 20 mM Tris pH 8.5 and 200 mM NaCl. The reactions were incubated at 20 °C for 6 h (meta-substituted benzamide fragments) or 24 h (azetidinyl/piperidinyl fragments). Final concentrations: 10 µM protein, 500 µM SF, DMSO 0.25% v/v in 200 µL. Unreacted compound and DMSO-d 6 were removed by buffer-exchanging protein solutions into 20 mM Tris pH 8.5, 200 mM NaCl and 5% v/v glycerol inside Vivaspin 500 PES Centrifugal Concentration units. The protein was concentrated to 0.6–1.3 mg/mL within the units, according to UV-vis absorption spectrophotometry via a Nanodrop ND-1000 instrument. Protein was flash frozen using a dry ice/ethanol bath prior to […]
Differential scanning fluorimetry assay:
GSK137 (40 mM stock) or pure DMSO-d 6 were added to crystallizable BCL6 BTB/POZ domain (11 µM) in 20 mM Tris pH 8.5, 200 mM NaCl and 5% v/v glycerol to give solutions containing: 11 µM protein, DMSO 0.63% v/v and 222 µM GSK137 (where applicable).
Concentrated protein-SF complexes were also thawed and diluted to 11 µM in 20 mM Tris pH 8.5, […] and 5% v/v glycerol.
SYPRO Orange dye (Invitrogen S6650) in extra dilution buffer (50×, eq. 1% v/v DMSO) was added to give assay-ready solutions with final concentrations: 10 µM protein, SYPRO 5×, DMSO 0.1% v/v in volume 80 µL for the protein-SF covalent complexes or 10 µM protein, SYPRO 5×, DMSO 0.6% v/v in volume 100 µL with and without 200 µM GSK137.
Each solution was aliquoted (3 × 20 µL) into wells of an opaque 384-well PCR microplate (Axygen PCR-384-LC480-W) and coated with silicone oil DC 200 (5 µL; Fluka Chemicals 85413). The microplate was centrifuged (1 min, 200 g) prior to insertion into a Fluodia T70 spectrophotometer (Photal Instruments). The fluorescence intensity was detected (emission wavelength: […]) as the plate instrument interior was heated from 27–75 °C using a temperature stepping mode (waiting time before measurement: 60 s; fluorescence measurement interval: 45 s). The approximate temperature gradient was 0.5 °C min-1.
(§1) The fluorescence intensity data from the individual replicates of each sample type were normalized and identically truncated within GraphPad Prism 5.0.4.11 These values were subsequently fitted to equation (4) corresponding to a Boltzmann sigmoid in order to obtain the melting temperature (“V50”; T m) of the protein:
(§2) Y=BOTTOM+((TOP+BOTTOM)/(1+exp((V50–X)/SLOPE))) (4)
(§3) The three obtained T m values were averaged to give a final T m value in each case. The normalized fluorescence data for the three replicates of each sample were averaged to yield a single dataset for each case, which were then plotted in GraphPad Prism 5.0.4 to give the plots shown in the manuscript.11
(§4) Table S9. Thermal melting temperatures of unmodified and covalently modified BCL6 BTB/POZ domain as determined by differential scanning fluorimetry measurements.
(§5) The arithmetic mean and standard deviation from three replicates are shown.
(§6) Hit Chemotype Protein Species Tm / °C ΔT m / °C […]
(§7) meta-Substituted Benzamide BCL6 + 2g 70.4 ± 0.3 +11.7
(§8) Azetidinyl Fragments BCL6 + 2h 55.5 ± 0.1 −3.2 […]
8.3. Protocol for kinetic analyzes (BCL6)
The (resynthesized and purified) SF hits (2f–i) were plated into seven Greiner 384 white low volume plate from a 10 mM source in DMSO. Differing volumes were added such that the final concentrations for each compound would be: 100, 50, 20, 10, or 5 µM after adding 15 µL of protein stock solution per well. […]
On the technique in general: Differential scanning fluorimetry follows unfolding on heating by fluorescence.

In the next test the target is T1, BCL6 (Homo sapiens, UniProt P41182, C67R/C84N/C8Q).
T1 construct: hBCL6-Flag-6H-Avi 3Cmut (5–129) produced as part of the GSK/GenScript collaboration; Flag (C); 6H (His6) (C); Avi (C)
The test can be described thus: Kinetic analyses of covalent modification, intact protein LC-MS. The format is binding. The settings on record: 0.5 μM BCL6; 5-100 μM SF; 4 °C.
Text: as §1, §2, §3, §4, §5, §6, §7, §8
8.3. Protocol for kinetic analyzes (BCL6) […]
BCL6 BTB domain (BCL65–129(C8Q,C67R,C84N)-FLAG, 10 µM) was incubated with each compound (500 µM, eq. 0.25% v/v DMSO) in 20 mM Tris pH 8.5 and 150 mM NaCl (2 mL) at 20 °C for 6 h. […] The protein-fragment complex was concentrated to >6 mg/mL, as determined by spectrophotometry. […]

For the compound `NC(=O)c1ccccc1OC1CN(C(=O)Cc2ccc(S(=O)(=O)F)cc2)C1` [2i], on BCL6 BTB/POZ domain, the Tm (as a rule, the temperature at the midpoint of the melting transition) stood at 59.9 ± 0.4 °C and the ΔTm (usually the shift of the melting midpoint relative to a reference) is “+1.2 °C”.
Consider `O=C(Cc1ccc(S(=O)(=O)F)cc1)N1CC(Oc2ccc(F)c(F)c2)C1` [2h], for which, on BCL6 BTB/POZ domain, the Tm came out at 55.5 ± 0.1 °C and the shift in melting temperature (ΔTm) was −3.2 °C.
With `CC(=O)Nc1cccc(CNC(=O)Cc2ccc(S(=O)(=O)F)cc2)c1` [2g], on BCL6 BTB/POZ domain, the Tm is 70.4 ± 0.3 °C and the ΔTm result is “+11.7 °C”. In addition, at BCL6, the Ki worked out at 80 µM.
The matching figures for `CN(C)C(=O)Nc1cccc(CNC(=O)Cc2ccc(S(=O)(=O)F)cc2)c1` [2f]: 66.6 ± 0.3 °C, “+7.9 °C” and 56 µM.

For the origin of these results see article PMC10510102, “Efficient Ligand Discovery Using Sulfur(VI) Fluoride Reactive Fragments” (ACS Chemical Biology, 2023).
